The subject of assay [1] is Pseudomonas fluorescens FW300-N2E2. The gist of the method: (§1)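 Washed cells (80 µL, final OD600 0.02) were dispensed onto 384-well dilution series of inorganic ion salts or equimolar nitrilotriacetic acid complexes. Plates kept aerobically were shaken at 700 rpm at 30 °C, anaerobic ones stayed still, and OD600 readings at 24 h (48 h for R2A strain comparisons) were scaled between water and growth-blocking antibiotic controls, ignoring wells with precipitate. IC50 values are drc R package fits of at least two biological replicate curves.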

Assay [2] relates to Rhodanobacter sp. FW104-10B01. The procedure, abridged:
as §1

[3] abbreviates: medium / electron acceptor: N2E2 Glucose/aerobic.
Setting [4] is: medium / electron acceptor: N2E2 Glucose/aerobic 0.25xMinerals.
Where [5] appears, read: medium / electron acceptor: N2E2 Glucose/aerobic (2).
[6] abbreviates: medium / electron acceptor: N2E2 KB/aerobic.
[7] abbreviates: medium / electron acceptor: N2E2 LB/aerobic.
[8] abbreviates: medium / electron acceptor: N2E2 LB/aerobic (2).
Where [9] appears, read: medium / electron acceptor: N2E2 LB/nitrate.
The mark [10] stands for this setting: medium / electron acceptor: N2E2 Lactate/aerobic.
Setting [11] is: medium / electron acceptor: N2E2 R2A/aerobic.
The mark [12] stands for this setting: medium / electron acceptor: 10B01 R2A/aerobic.
The mark [13] stands for this setting: medium / electron acceptor: 10B01 R2A/nitrate.

Regarding `[Cl][Pt]([Cl])([Cl])[Cl]` [platinum (IV) chloride], the IC50 growth inhibition in assay [1] (setting [3]) was found to be 0.0175 mM; in assay [1] (setting [4]), 0.0175 mM; in assay [1] (setting [5]), 0.0175 mM; in assay [1] (setting [6]), 0.0352 mM; in assay [1] (setting [7]), 0.172 mM; in assay [1] (setting [8]), 0.0661 mM. Also, the IC50 growth inhibition in assay [1] (setting [9]) was found to be 0.0329 mM; in assay [1] (setting [10]), 0.418 mM; in assay [1] (setting [11]), 0.0861 mM; in assay [2] (setting [12]), 0.123 mM; in assay [2] (setting [13]), 0.0935 mM.

For `OP(O)(O)=S` [Sodium thiophosphate tribasic hydrate], the IC50 growth inhibition is above 50 mM in assay [1] (setting [3]); above 50 mM in assay [1] (setting [4]); above 50 mM in assay [1] (setting [5]); 42.2 mM in assay [1] (setting [6]); above 50 mM in assay [1] (setting [7]); 33.1 mM in assay [1] (setting [8]). In addition, the IC50 growth inhibition was 21 mM in assay [1] (setting [9]); above 50 mM in assay [1] (setting [10]); above 50 mM in assay [1] (setting [11]); above 50 mM in assay [2] (setting [12]); above 50 mM in assay [2] (setting [13]).

On to `[Br-].[Na+]` [sodium bromide], for which the IC50 growth inhibition in assay [1] (setting [3]) came to 354 mM; in assay [1] (setting [4]), 405 mM; in assay [1] (setting [5]) it was 379 mM; in assay [1] (setting [6]), 354 mM; in assay [1] (setting [7]), 354 mM; in assay [1] (setting [8]), 354 mM. Besides, the IC50 growth inhibition in assay [1] (setting [9]) was 303 mM; in assay [1] (setting [10]), 378 mM; in assay [1] (setting [11]), 448 mM; in assay [2] (setting [12]), above 500 mM; in assay [2] (setting [13]), above 500 mM.

For the molecule `[O-][I+2]([O-])O` [sodium iodate], the IC50 growth inhibition in assay [1] (setting [3]) amounted to 4.72 mM; in assay [1] (setting [4]) it was 2.75 mM; in assay [1] (setting [5]), 0.645 mM; in assay [1] (setting [6]), 3.53 mM; in assay [1] (setting [7]), 8.49 mM; in assay [1] (setting [8]) it was 12.4 mM. In addition, the IC50 growth inhibition in assay [1] (setting [9]) was 0.208 mM; in assay [1] (setting [10]), 5.41 mM; in assay [1] (setting [11]) it was 7.77 mM; in assay [2] (setting [12]) it was 35.4 mM; in assay [2] (setting [13]) it was 4.5 mM.

Take `[O-][I+3]([O-])([O-])O` [Sodium periodate]: the IC50 growth inhibition in assay [1] (setting [3]) turned out to be 5.52 mM; in assay [1] (setting [4]) it was 2.35 mM; in assay [1] (setting [5]), 1.56 mM; in assay [1] (setting [6]) it was 0.326 mM; in assay [1] (setting [7]), 0.813 mM; in assay [1] (setting [8]) it was 2.35 mM. In addition, the IC50 growth inhibition in assay [1] (setting [9]) turned out to be 0.146 mM; in assay [1] (setting [10]) it was 27.4 mM; in assay [1] (setting [11]) it was 0.772 mM; in assay [2] (setting [12]), 0.101 mM; in assay [2] (setting [13]) it was 0.0825 mM.

On to `[Cl][Bi]([Cl])[Cl]` [bismuth(III) chloride], for which the IC50 growth inhibition in assay [1] (setting [3]) came out at 0.0103 mM; in assay [1] (setting [4]), 0.00276 mM; in assay [1] (setting [5]) it was 0.00153 mM; in assay [1] (setting [6]), 0.0578 mM; in assay [1] (setting [7]), 0.0727 mM; in assay [1] (setting [8]) it was 0.103 mM. The IC50 growth inhibition came to 0.00603 mM in assay [1] (setting [9]); 0.00786 mM in assay [1] (setting [10]); 0.00401 mM in assay [1] (setting [11]); 0.00279 mM in assay [2] (setting [12]); 0.354 mM in assay [2] (setting [13]).

For `[Na+].[Na+].[O]=[Mo](=[O])([O-])[O-]` [Sodium molybdate], the IC50 growth inhibition in assay [1] (setting [3]) was determined as 20.3 mM; in assay [1] (setting [4]) it was 2.62 mM; in assay [1] (setting [5]), 3.39 mM; in assay [1] (setting [6]), 337 mM; in assay [1] (setting [7]) it was 369 mM; in assay [1] (setting [8]), 354 mM. Besides, the IC50 growth inhibition was 214 mM in assay [1] (setting [9]); 162 mM in assay [1] (setting [10]); 231 mM in assay [1] (setting [11]); 354 mM in assay [2] (setting [12]); 262 mM in assay [2] (setting [13]).

For `[Cl][Pd][Cl]` [Palladium(II) chloride], the IC50 growth inhibition was below 0.00244 mM in assay [1] (setting [3]); below 0.00244 mM in assay [1] (setting [4]); below 0.00244 mM in assay [1] (setting [5]); 3.73 mM in assay [1] (setting [6]); above 5 mM in assay [1] (setting [7]); 3.78 mM in assay [1] (setting [8]). For the same molecule, the IC50 growth inhibition in assay [1] (setting [9]) is above 5 mM; in assay [1] (setting [10]), below 0.00244 mM; in assay [1] (setting [11]), 0.249 mM; in assay [2] (setting [12]), above 5 mM; in assay [2] (setting [13]), above 5 mM.

On to `O.O.O.O.O=S(=O)([O-])[O-].[Be+2]` [beryllium sulfate tetrahydrate], for which the IC50 growth inhibition was 1.55 mM in assay [1] (setting [3]); 1.55 mM in assay [1] (setting [4]); 1.55 mM in assay [1] (setting [5]); 109 mM in assay [1] (setting [6]); 1.61 mM in assay [1] (setting [7]); below 0.244 mM in assay [1] (setting [8]). Also, the IC50 growth inhibition in assay [1] (setting [9]) was 91.9 mM; in assay [1] (setting [10]), 4.8 mM; in assay [1] (setting [11]), above 500 mM; in assay [2] (setting [12]), above 500 mM; in assay [2] (setting [13]), above 500 mM.

Values taken from the supplement of paper PMC6461962.
